The text below walks through data of PubChem BioAssay AID328 (DTP/NCI, 2004).

In the experiment the test system is BDF1 mice, P388 leukemia ip, median survival T/C. Nature of the experiment: NCI In Vivo Anticancer Drug Screen. Data for tumor model P388 Leukemia (intraperitoneal) in B6D2F1 (BDF1) mice. The conditions noted are these: endpoint: median survival time, higher = longer survival. Put shortly: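 Each value expresses how treatment altered survival: treated-mouse outcome over vehicle-mouse outcome, both groups bearing the transplanted tumour.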

[1] abbreviates: dose: 25.0 mg/kg/injection, schedule: Q04DX003 (ip), vehicle: saline with Tween-80.
Setting [2] is: dose: 50.0 mg/kg/injection, schedule: Q04DX003 (ip), vehicle: saline with Tween-80.
Where [3] appears, read: dose: 200.0 mg/kg/injection, schedule: Q04DX003 (ip), vehicle: Klucel (hydroxypropylcellulose) (HPC).
Where [4] appears, read: dose: 50.0 mg/kg/injection, schedule: Q01DX009 (ip), vehicle: saline with Tween-80.
The mark [5] stands for this setting: dose: 100.0 mg/kg/injection, schedule: Q01DX009 (ip), vehicle: saline with Tween-80.
[6] abbreviates: dose: 100.0 mg/kg/injection, schedule: Q04DX003 (ip), vehicle: Klucel (hydroxypropylcellulose) (HPC).
[7] abbreviates: dose: 400.0 mg/kg/injection, schedule: Q04DX003 (ip), vehicle: Klucel (hydroxypropylcellulose) (HPC).

Values joined by “and” are separate entries in the source; they are usually repeats but may differ in a detail not shown here. Identical values can stand only once. Inconclusive results and toxic doses are left out.

In the case of `CC1=C(O)C(=O)C(C2=C(O)C(=O)C(C)=C(O)C2=O)=C(O)C1=O`, the T/C was 100 % of control (dose: 0.63 mg/kg/injection, schedule: Q01DX010 (ip), vehicle: saline); 100 % of control (dose: 1.25 mg/kg/injection, schedule: Q01DX010 (ip), vehicle: saline); 118 % of control (dose: 62.5 micrograms/kg/injection, schedule: Q01DX001 (ip), vehicle: saline); 90 % of control (dose: 125.0 micrograms/kg/injection, schedule: Q01DX001 (ip), vehicle: saline); 100 % of control (dose: 250.0 micrograms/kg/injection, schedule: Q01DX001 (ip), vehicle: saline); 100 % of control (dose: 500.0 micrograms/kg/injection, schedule: Q01DX001 (ip), vehicle: saline). The T/C (dose: 1000.0 micrograms/kg/injection, schedule: Q01DX001 (ip), vehicle: saline) is 100 % of control.
Turning to `NC(=S)N/N=C/c1ncccc1F`, the T/C reads like this: under setting [1], 110 % of control; under setting [2], 119 % of control.
With `CCCn1cnc2c(=S)nc(N)[nH]c21`, the T/C is, setting by setting: (dose: 6.25 mg/kg/injection, schedule: Q01DX009 (ip), vehicle: Klucel (hydroxypropylcellulose) (HPC)) 100 % of control; (dose: 12.5 mg/kg/injection, schedule: Q01DX009 (ip), vehicle: Klucel (hydroxypropylcellulose) (HPC)) 86 % of control; (dose: 25.0 mg/kg/injection, schedule: Q01DX009 (ip), vehicle: Klucel (hydroxypropylcellulose) (HPC)) 86 % of control; (dose: 29.0 mg/kg/injection, schedule: Q04DX003 (ip), vehicle: Klucel (hydroxypropylcellulose) (HPC)) 110 % of control; (dose: 45.0 mg/kg/injection, schedule: Q04DX003 (ip), vehicle: Klucel (hydroxypropylcellulose) (HPC)) 115 % of control; (dose: 50.0 mg/kg/injection, schedule: Q01DX009 (ip), vehicle: Klucel (hydroxypropylcellulose) (HPC)) 105 % of control. Moreover, the T/C by setting is: (dose: 150.0 mg/kg/injection, schedule: Q04DX003 (ip), vehicle: Klucel (hydroxypropylcellulose) (HPC)) 150 % of control; under setting [3], 118 % of control.
As to `COc1ccc(C(=O)CCCCl)c(OC)c1`, the T/C by setting is: (dose: 100.0 mg/kg/injection, schedule: Q04DX003 (ip), vehicle: saline with Tween-80) 100 % of control; (dose: 200.0 mg/kg/injection, schedule: Q04DX003 (ip), vehicle: saline with Tween-80) 100 % of control; (dose: 400.0 mg/kg/injection, schedule: Q04DX003 (ip), vehicle: saline with Tween-80) 90 % of control.
For the compound `O=C(O)c1csc(-c2csc(CCNC(=O)C(F)(F)F)n2)n1`, the T/C was 94 % of control under setting [4]; 93 % of control under setting [5]; 103 % of control (dose: 200.0 mg/kg/injection, schedule: Q01DX009 (ip), vehicle: saline with Tween-80).
Consider `O=C(OCC1OC(n2cnc3c(=O)[nH]c(=O)[nH]c32)C(OC(=O)c2ccccc2)C1OC(=O)c1ccccc1)c1ccccc1` (stereo not given), for which the T/C (dose: 50.0 mg/kg/injection, schedule: Q01DX010 (ip), vehicle: saline with Tween-80) is 100 % of control; the T/C (dose: 100.0 mg/kg/injection, schedule: Q01DX010 (ip), vehicle: saline with Tween-80) is 90 % of control; the T/C (dose: 200.0 mg/kg/injection, schedule: Q01DX010 (ip), vehicle: saline with Tween-80) was 90 % of control; the T/C (dose: 400.0 mg/kg/injection, schedule: Q01DX010 (ip), vehicle: saline with Tween-80) is 90 % of control.
Regarding `Cc1cccc(CCl)c1`, the T/C by setting is: (dose: 100.0 mg/kg/injection, schedule: Q04DX003 (ip), vehicle: saline sonified) 104 % of control; (dose: 200.0 mg/kg/injection, schedule: Q04DX003 (ip), vehicle: saline sonified) 109 % of control; (dose: 400.0 mg/kg/injection, schedule: Q04DX003 (ip), vehicle: saline sonified) 100 % of control.
`Cc1ccc(C)c(OS(=O)(=O)c2ccc([N+](=O)[O-])cc2)c1`: the T/C (dose: 100.0 mg/kg/injection, schedule: Q01DX001 (ip), vehicle: saline sonified) was 100 % of control; the T/C (dose: 200.0 mg/kg/injection, schedule: Q01DX001 (ip), vehicle: saline sonified) was 104 % of control; the T/C (dose: 400.0 mg/kg/injection, schedule: Q01DX001 (ip), vehicle: saline sonified) was 90 % of control.
In the case of `ClC(c1ccccc1)(c1ccccc1)c1ccccc1`, the T/C (dose: 100.0 mg/kg/injection, schedule: Q04DX003 (ip), vehicle: other) is 100 % of control; the T/C (dose: 200.0 mg/kg/injection, schedule: Q04DX003 (ip), vehicle: other) is 108 % of control; the T/C (dose: 400.0 mg/kg/injection, schedule: Q04DX003 (ip), vehicle: other) is 104 % of control.
As to `CC(C)(Cl)CNC(=O)c1ccc([N+](=O)[O-])cc1`, the T/C runs as follows: under setting [6], 91 % of control; under setting [3], 104 % of control; under setting [7], 100 % of control.
For the compound `O=[N+]([O-])/C=C/c1ccc2ccccc2n1`, the T/C (dose: 1.25 mg/kg/injection, schedule: Q01DX009 (ip), vehicle: saline with Tween-80) was 103 % of control; the T/C (dose: 2.5 mg/kg/injection, schedule: Q01DX009 (ip), vehicle: saline with Tween-80) is 92 % of control and 94 % of control; the T/C (dose: 5.0 mg/kg/injection, schedule: Q01DX009 (ip), vehicle: saline with Tween-80) was 94 % of control and 110 % of control; the T/C (dose: 10.0 mg/kg/injection, schedule: Q01DX009 (ip), vehicle: saline with Tween-80) is 94 % of control and 115 % of control; the T/C (dose: 12.5 mg/kg/injection, schedule: Q04DX003 (ip), vehicle: saline with Tween-80) was 111 % of control; the T/C (dose: 20.0 mg/kg/injection, schedule: Q01DX009 (ip), vehicle: saline with Tween-80) was 94 % of control. Further, under setting [1], the T/C is 102 % of control.
With `O=C1c2ccccc2-c2cc(-c3ccccc3)cc(-c3ccccc3)c21`, the T/C is 100 % of control under setting [6], 100 % of control under setting [3] and 100 % of control under setting [7].
Regarding `CCCCCCCCC(=O)NCc1ccc(OC)cc1`, the T/C runs as follows: (dose: 100.0 mg/kg/injection, schedule: Q01DX001 (ip), vehicle: other) 91 % of control; (dose: 200.0 mg/kg/injection, schedule: Q01DX001 (ip), vehicle: other) 100 % of control; (dose: 400.0 mg/kg/injection, schedule: Q01DX001 (ip), vehicle: other) 91 % of control.
On to `O=C(NO)c1ccccn1`, for which the T/C is 109 % of control (dose: 130.0 mg/kg/injection, schedule: Q01DX010 (ip), vehicle: water) and 100 % of control (dose: 200.0 mg/kg/injection, schedule: Q01DX010 (ip), vehicle: water).
With `CCCCn1cnc2c(=S)nc(N)[nH]c21`, the T/C (dose: 12.5 mg/kg/injection, schedule: Q01DX009 (ip), vehicle: saline with Tween-80) was 109 % of control; the T/C (dose: 25.0 mg/kg/injection, schedule: Q01DX009 (ip), vehicle: saline with Tween-80) is 118 % of control; the T/C (dose: 33.0 mg/kg/injection, schedule: Q04DX003 (ip), vehicle: saline with Tween-80) was 100 % of control and 118 % of control; the T/C under setting [4] was 118 % of control; the T/C under setting [2] is 108 % of control and 118 % of control; the T/C (dose: 75.0 mg/kg/injection, schedule: Q04DX003 (ip), vehicle: saline with Tween-80) is 122 % of control.
With `C[C@]12CCC(=O)C(O)=C1CC[C@@H]1[C@@H]2CC[C@@]2(C)[C@H]1CC[C@]2(C)O`, the T/C (dose: 66.0 mg/kg/injection, schedule: Q01DX009 (ip), vehicle: saline with Tween-80) is 104 % of control; the T/C under setting [5] was 95 % of control; the T/C (dose: 150.0 mg/kg/injection, schedule: Q01DX009 (ip), vehicle: saline with Tween-80) was 95 % of control; the T/C (dose: 200.0 mg/kg/injection, schedule: Q01DX009 (ip), vehicle: saline sonified) was 90 % of control; the T/C (dose: 400.0 mg/kg/injection, schedule: Q01DX009 (ip), vehicle: saline sonified) is 90 % of control.
